From US9034859B2, “Sulfated oxysterol and oxysterol sulfation by hydroxysterol sulfotransferase promote lipid homeostasis and liver proliferation” (Virginia Commonwealth University, priority 2011, dated 2015)

Assays:
[1] = test system: primary rat hepatocytes (PRH); assay: Western blot in primary rat hepatocytes (Example 4); format: cell-based; details: Ad-Control-infected group, T0901317 1.5 μM or 25HC 3 μM
Method: PRH were prepared as previously described (24). Briefly, parenchymal cells (3.5×10^6) were inoculated in 60-mm plastic Petri dishes coated with rat tail collagen. The plates contained 3 ml of Williams E culture media supplemented with thyroxine (1 μM), dexamethasone (0.1 μM), and penicillin (100 units/ml). Three hours after plating, culture medium was removed and fresh medium was added. Cells were then infected with Ad-SULT2B1b at a multiplicity (MOI) of 10 plaque forming units/cell (pfu/cell) or 100 nM of siRNA-SULT2B1b (ON-TARGET plus siRNA of rat SULT2B1b, Thermo Scientific Dharmacon, Lafayette, Colo.) as previously described (31). The Ad-Control and siRNA-Control (ON-TARGET plus negative control siRNA) were used as controls, respectively. Twenty four hours after infection, cells were treated with T0901317 (1.5 μM) or 25HC (3 μM) for another 24 hours. The cells were harvested at the timepoints as indicated in the text.
Cell lysates were prepared from frozen mouse liver tissues or PRH, and 50 μg of the total proteins were separated by 10% SDS-PAGE, transferred to polyvinylidene difluoride membrane (Millipore, Eschbom, Germany). Specific protein was probed with specific antibodies against PCNA, human SULT2B1b (Santa Cruz Biotechnology, Santa Cruz, Calif.), LXRα (Abcam, Cambridge, Mass.), ATP-binding cassette transporters 1 (ABCA1) (Abcam, Cambridge, Mass.), and SREBP1 (Santa Cruz Biotechnology, Santa Cruz, Calif.). β-Actin (Sigma-Aldrich, St. Louis, Mo.) was used as a loading control. Western analysis was performed by methods known in the art.

[2] = test system: lipogenic gene expression; assay: Relative hepatic mRNA expression by real-time RT-PCR, long-term treatment; format: in vivo, C57BL/6J female mice; details: liver, HFD mice
Method: (§1) Animal studies were approved by Institutional Animal Care and Use Committee of McGuire Veterans Affairs Medical Center and were conducted in accordance with the Declaration of Helsinki, the Guide for the Care and Use of Laboratory Animals, and all applicable regulations. To examine the effect of 25HC3S on diet-induced lipid accumulation in sera and liver, 8-week-old female C57BL/6J mice (Charles River, Wilmington, Mass.) were randomly assigned to three groups: the first control group was fed a chow diet; the high fat diet (HFD) group was fed a HFD (Harlan Teklad, Madison, Wis.) containing 42% kcal from fat, 43% kcal from carbohydrate, 15% kcal from protein and 0.2% cholesterol; and the high cholesterol diet (HCD) group was fed a 2% cholesterol diet with 18% kcal from fat, 58% kcal from carbohydrate and 24% kcal from protein for 10 weeks, respectively. All mice were housed under identical conditions in an aseptic facility and given free access to water and food. At the end of each period, the mice were intraperitoneally injected with vehicle solution (ethanol/PBS; Vehicle), 25HC (25 mg/kg), or 25HC3S (25 mg/kg) for 2 times and fasted over night for acute treatment (n=15-17 for each group) or once every three days for 6 weeks (n=16 for each group) and fasted 5 hrs for long-term treatment; and blood samples were collected. Serum triglyceride, total cholesterol, high density lipoprotein-cholesterol, glucose, alkaline phosphatase (ALK), alanine aminotransferase (ALT), and aspartate aminotransferase (AST) were measured using standard enzymatic techniques in the clinical laboratory at McGuire Veterans Affairs Medical Center. Lipoprotein profiles in sera were analyzed by HPLC as following described.
Total RNA was isolated with SV Total RNA Isolation Kit (Promega, Madison, Wis.), which included DNase treatment. Total RNA, 2 μg, was used for the first-strand cDNA synthesis as recommended by the manufacturer (Invitrogen, Carlsbad, Calif.). Real-time RT-PCR was performed using SYBR Green as indicator on ABI 7500 Fast Real-Time PCR System (Applied Biosystems, Foster City, Calif.). All primer/probe sets for real-time PCR were TaqMan gene expression assays (Applied Biosystems, Foster City, Calif.). Amplifications of β-actin and GAPDH were used as internal controls. Relative messenger RNA (mRNA) expression was quantified with the comparative cycle threshold (Ct) method and was expressed as 2^−ΔΔCt. Suitable primers were utilized.

[3] = Quantification of hepatic lipids and liver morphology, long-term treatment; format: in vivo, C57BL/6J female mice; details: HFD mice
Method: as §1
For each mouse, three specimens from different regions of the liver were collected and fixed in 4% paraformaldehyde in 0.1 M phosphate buffer at room temperature overnight. The regions of the specimens were standardized for all mice. The paraffin-embedded tissue sections (4 μm) were stained with hematoxylin and eosin.
Liver tissues were homogenized, and lipids were extracted with a mixture of chloroform and methanol (2:1), and filtered. The extracts, 0.2 ml, were evaporated to dryness and dissolved in 100 μl of isopropanol containing 10% of triton X-100 for cholesterol assay (Wako Chemicals USA, Richmond, Va.), the NEFA solution (0.5 g of EDTA-Na2, 2 g of Triton X-100, 0.76 ml of 1N NaOH, and 0.5 g of sodium azide/1, pH 6.5) for free fatty acid assay (Wako Chemicals USA, Richmond, Va.), or isopropanol only for triglyceride assay (Fisher Scientific, Pittsburgh, Pa.). All of the assays were performed according to the manufacturer's instructions, respectively. Each lipid concentration was normalized to liver weight.

[4] = test system: PCNA; assay: PCNA labeling index in liver histology; format: in vivo, C57BL/6 mice; details: liver specimen of 25HC3S treated mice (5 mg/kg, 48 h)
Method: Metabolism. (Accepted)]. […] Antigen retrieval was performed by microwaving of the sections in citrate buffer (PH 6.0) for 10 min. Sections were incubated overnight at […] with the primary monoclonal antibody against proliferating cell nuclear antigen (PCNA) (ab29, Abcam, Cambridge, Mass.). After washing with PBS, immobilized antibodies were detected by the avidin-biotin-peroxidase complex technique (Vectastain@ ABC Kit, Vector Laboratories, Burlingame, Calif.). DAB (Vector Laboratories, Burlingame, Calif.) and haematoxylin (Sigma-Aldrich, St. Louis, Mo.) was used as the chromogen and nuclear counterstain, respectively. […] The quantitation of PCNA expression was expressed as the PCNA labeling index.

[5] = once every three days for 6 weeks, mean ± SD, n=5-6

For `C[C@H](CCCC(C)(C)O)[C@H]1CC[C@H]2[C@@H]3CC=C4C[C@@H](O)CC[C@]4(C)[C@H]3CC[C@]12C` [25HC, 25-hydroxycholesterol], the “LXR response gene expressions” value [1] was “significantly increased” and the PCNA expression [1] was “decreased”.
For `CC(CCCC(C)(C)O)C1CCC2C3CC=C4CC(OS(=O)(=O)O)CCC4(C)C3CCC12C` (stereo not shown) [25HC3S, 25-hydroxycholesterol-3-sulfate], the “decrease of ACC1 mRNA level” value ([2]; long-term treatment) was 41%, the “decrease of CD36 mRNA” value ([2]; long-term treatment) was 49% and the “decrease of FAS mRNA level” value ([2]; long-term treatment) was 24%. The “decrease of GPAM mRNA” value ([2]; long-term treatment) was 19%, the “decrease of SREBP-1c mRNA level” value ([2]; long-term treatment) was 23% and the “suppression of IL1α expression” value ([2]; long-term treatment) was 53%. For the same molecule, the “suppression of IL1β expression” value ([2]; long-term treatment) was 58%, the “suppression of TNFα expression” value ([2]; long-term treatment) was 47% and the “ABCA1 relative hepatic mRNA” value [2, 5] was 0.80 ± 0.12. The “ABCG1 relative hepatic mRNA” value [2, 5] was 0.72 ± 0.19, the “ACC1 relative hepatic mRNA” value [2, 5] was 0.63 ± 0.08 and the “CD36 relative hepatic mRNA” value [2, 5] was 0.47 ± 0.08. For the same molecule, the “FAS relative hepatic mRNA” value [2, 5] was 0.73 ± 0.16, the “GPAM relative hepatic mRNA” value [2, 5] was 0.81 ± 0.10 and the “IL1α relative hepatic mRNA” value [2, 5] was 0.54 ± 0.14. The “IL1β relative hepatic mRNA” value [2, 5] was 0.58 ± 0.27, the “IκBα relative hepatic mRNA” value [2, 5] was 1.48 ± 0.38 and the “LDLR relative hepatic mRNA” value [2, 5] was 0.79 ± 0.13. For the same molecule, the “LXRα relative hepatic mRNA” value [2, 5] was 0.95 ± 0.24, the “MTTP relative hepatic mRNA” value [2, 5] was 0.78 ± 0.09 and the “NFκB relative hepatic mRNA” value [2, 5] was 0.86 ± 0.22. The “PLTP relative hepatic mRNA” value [2, 5] was 0.60 ± 0.11, the “SRB1 relative hepatic mRNA” value [2, 5] was 0.87 ± 0.20 and the “SREBP-1c relative hepatic mRNA” value [2, 5] was 0.76 ± 0.08. For the same molecule, the “TNFα relative hepatic mRNA” value [2, 5] was 0.60 ± 0.34, the “hepatic cholesterol ester concentration” value [3] was “not affected” and the “lipid inclusions in liver (H&E morphology)” value [3] was “significantly decreased”. For the same molecule, the “reduction of hepatic free cholesterol” value ([3]; normalized by liver weight) was 28%, the “reduction of hepatic free fatty acid” value ([3]; normalized by liver weight) was 23% and the “reduction of hepatic total cholesterol” value ([3]; normalized by liver weight) was 15%. For the same molecule, the “reduction of hepatic triglyceride” value ([3]; normalized by liver weight) was 30% and the PCNA labeling index [4] was 12%.
